Values quoted from earlier work as cited in US20020048798A1, “Novel antioxidants” (priority 2000, published 2002).

Settings: factor relative to the racemate of α-lipoic acid

O=C(O)CCCC[C@@H]1CCSS1 [R-α-lipoic acid]
anti-inflammatory activity, stronger by a factor than that of the racemate: 10
